Values quoted from earlier work, collected in PMC9781794, “Polyphosphazene-Based Biomaterials for Biomedical Applications” (International Journal of Molecular Sciences, 2022).

How the values were obtained:
[1] = test system: bacterial species (Gram-positive, Gram-negative, and Mycobacteria); parameters: method as in PMID 36040292; conditions: both Gram-positive and Gram-negative strains; ref [108]
[2] = buffer

Row | degradation half-life (T1/2) [2] | Substance | anti-bacterial activity [1] | anti-bacterial potency range [1]
1 | – | [N3P3(NHCy)6{Au(PPh3)}2{Ag(PPh3)}](NO3)3 [Sample 13] | excellent | nanomolar range
2 | ~ 1 year | valine | – | –
